Experimental data published in patent US20260138961A1, “MODULATORS OF MITOCHONDRIAL DNA REPLICATION” (Pretzel Therapeutics, Inc., priority 2022, published 2026).

target: T1, POLγA:A467T (Homo sapiens, UniProt P54098, A467T); experiment: DNA polymerization assay, POLγA:A467T mutant; type: biochemical; conditions: stimulation of polymerase activity, primed M13mp18 ssDNA, 37° C. 2 hours; read-out: A467T AC50
T1 sequence (P54098 1-1239 A467T): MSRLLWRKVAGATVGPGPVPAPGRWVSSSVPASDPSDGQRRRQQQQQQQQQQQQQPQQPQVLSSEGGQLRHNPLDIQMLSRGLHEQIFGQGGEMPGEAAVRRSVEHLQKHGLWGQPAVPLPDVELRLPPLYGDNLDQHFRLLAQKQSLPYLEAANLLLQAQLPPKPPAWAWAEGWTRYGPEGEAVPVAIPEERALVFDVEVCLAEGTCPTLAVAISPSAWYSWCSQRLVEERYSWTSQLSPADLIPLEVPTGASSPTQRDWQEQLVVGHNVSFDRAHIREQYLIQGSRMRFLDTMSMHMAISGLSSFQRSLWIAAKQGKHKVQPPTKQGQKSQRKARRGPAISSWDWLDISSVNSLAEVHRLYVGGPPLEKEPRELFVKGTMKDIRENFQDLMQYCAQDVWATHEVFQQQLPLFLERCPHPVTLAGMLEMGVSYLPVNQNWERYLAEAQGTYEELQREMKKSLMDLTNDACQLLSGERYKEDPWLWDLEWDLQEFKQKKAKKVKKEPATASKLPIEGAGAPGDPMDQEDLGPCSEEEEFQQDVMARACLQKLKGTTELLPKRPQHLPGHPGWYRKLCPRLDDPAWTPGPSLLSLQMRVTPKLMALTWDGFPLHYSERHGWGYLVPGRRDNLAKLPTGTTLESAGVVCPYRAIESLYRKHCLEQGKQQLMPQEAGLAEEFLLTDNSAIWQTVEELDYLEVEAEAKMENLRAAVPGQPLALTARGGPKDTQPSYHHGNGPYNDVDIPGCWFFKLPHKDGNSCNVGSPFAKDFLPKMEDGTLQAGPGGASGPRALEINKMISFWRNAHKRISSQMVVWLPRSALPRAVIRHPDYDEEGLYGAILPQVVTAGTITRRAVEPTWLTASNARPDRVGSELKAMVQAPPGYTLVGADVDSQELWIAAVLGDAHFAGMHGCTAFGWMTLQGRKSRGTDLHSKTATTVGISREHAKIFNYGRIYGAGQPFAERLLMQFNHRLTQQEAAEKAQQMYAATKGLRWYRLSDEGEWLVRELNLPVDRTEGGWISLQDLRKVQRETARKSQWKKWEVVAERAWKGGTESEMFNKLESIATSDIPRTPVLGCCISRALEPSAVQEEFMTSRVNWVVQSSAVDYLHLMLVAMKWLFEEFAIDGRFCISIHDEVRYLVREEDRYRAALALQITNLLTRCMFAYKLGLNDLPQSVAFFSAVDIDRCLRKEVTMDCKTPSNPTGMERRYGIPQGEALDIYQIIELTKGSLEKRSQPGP
T1 sequence (Q9UHN1 1-485 partner): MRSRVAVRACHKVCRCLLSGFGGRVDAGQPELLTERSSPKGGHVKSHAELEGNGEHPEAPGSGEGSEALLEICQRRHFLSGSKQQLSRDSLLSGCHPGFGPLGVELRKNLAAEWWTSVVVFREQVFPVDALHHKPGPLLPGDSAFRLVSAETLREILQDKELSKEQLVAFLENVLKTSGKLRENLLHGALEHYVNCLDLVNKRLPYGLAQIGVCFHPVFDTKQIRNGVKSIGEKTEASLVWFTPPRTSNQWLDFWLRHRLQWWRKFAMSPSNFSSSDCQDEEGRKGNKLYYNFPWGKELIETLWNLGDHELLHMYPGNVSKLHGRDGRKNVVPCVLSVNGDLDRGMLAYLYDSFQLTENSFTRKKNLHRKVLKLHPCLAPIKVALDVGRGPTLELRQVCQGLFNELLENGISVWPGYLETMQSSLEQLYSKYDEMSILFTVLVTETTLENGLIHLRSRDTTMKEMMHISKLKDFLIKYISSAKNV

`Cc1cc(S(=O)(=O)Nc2cccc(C(=O)N(C)C(C)CO)c2)c(C)cc1Cl` (single isomer, unassigned) [Example 15, 3-((4-chloro-2,5-dimethylphenyl)sulfonamido)-N-(1-hydroxypropan-2-yl)-N-methylbenzamide] and `Cc1cc(S(=O)(=O)Nc2cccc(C(=O)N[C@H](C)CO)c2)c(C)cc1Cl` [Example 51, (R)-3-((4-chloro-2,5-dimethylphenyl)sulfonamido)-N-(1-hydroxypropan-2-yl)benzamide] cannot be ordered by AC50: > 100 µM for the first, > 100 µM for the second.

`Cc1csc(-c2cccc(NS(=O)(=O)c3cc(C)c(Cl)cc3C)c2)n1` [Example 20, 4-chloro-2,5-dimethyl-N-(3-(4-methylthiazol-2-yl)phenyl)benzenesulfonamide] and `Cc1cnc(-c2cccc(NS(=O)(=O)c3cc(C)c(Cl)cc3C)c2)s1` [Example 21, 4-chloro-2,5-dimethyl-N-(3-(5-methylthiazol-2-yl)phenyl)benzenesulfonamide] are within 1.5-fold of each other in AC50: 4 µM for the first, 3 µM for the second.

`Cc1cc(S(=O)(=O)N(C)c2cccc(-c3nccs3)c2)c(C)cc1Cl` [Example 22, 4-chloro-N,2,5-trimethyl-N-(3-(thiazol-2-yl)phenyl)benzenesulfonamide] and `Cc1cc2c(NS(=O)(=O)c3cc(C)c(Cl)cc3C)cccc2[nH]1` [Example 37, 4-chloro-2,5-dimethyl-N-(2-methyl-1H-indol-4-yl)benzenesulfonamide] cannot be ordered by AC50: > 100 µM for the first, > 100 µM for the second.

`Cc1ccccc1S(=O)(=O)Nc1cccc(C(=O)N2CCOC[C@@H]2C)c1` [Example 23, (S)-2-methyl-N-(3-(3-methylmorpholine-4-carbonyl)phenyl)benzenesulfonamide] and `Cc1ccc(C)c(S(=O)(=O)Nc2cccc(C(=O)N3CCOCC3)c2)c1` [Example 29, 2,5-dimethyl-N-(3-(morpholine-4-carbonyl)phenyl)benzenesulfonamide] cannot be ordered by AC50: > 100 µM for the first, > 100 µM for the second.

`Cc1ccc(C)c(S(=O)(=O)Nc2cccc(C(=O)N3CCSCC3)c2)c1` [Example 24, 2,5-dimethyl-N-(3-(thiomorpholine-4-carbonyl)phenyl)benzenesulfonamide] and `Cc1ccc(C)c(S(=O)(=O)Nc2cccc(C(=O)N3CCN(C)CC3)c2)c1` [Example 31, 2,5-dimethyl-N-(3-(4-methylpiperazine-1-carbonyl)phenyl)benzenesulfonamide] cannot be ordered by AC50: > 100 µM for the first, > 100 µM for the second.

`Cc1ccc(C)c(S(=O)(=O)Nc2cccc(C(=O)N(C)C)c2)c1` [Example 25, 3-((2,5-dimethylphenyl)sulfonamido)-N,N-dimethylbenzamide] and `Cc1ccc(C)c(S(=O)(=O)Nc2cccc(C(N)=O)c2)c1` [Example 27, 3-((2,5-dimethylphenyl)sulfonamido)benzamide] cannot be ordered by AC50: > 100 µM for the first, > 100 µM for the second.

`Cc1ccc(C)c(S(=O)(=O)Nc2cccc(C(=O)N(C)Cc3ccccc3)c2)c1` [Example 26, N-benzyl-3-((2,5-dimethylphenyl)sulfonamido)-N-methylbenzamide] and `Cc1ccc(C)c(S(=O)(=O)Nc2cccc(C(=O)NCc3ccccc3)c2)c1` [Example 28, N-benzyl-3-((2,5-dimethylphenyl)sulfonamido)benzamide] cannot be ordered by AC50: > 100 µM for the first, > 100 µM for the second.

`CC(=O)N1CCN(C(=O)c2cccc(NS(=O)(=O)c3cc(C)ccc3C)c2)CC1` [Example 30, N-(3-(4-acetylpiperazine-1-carbonyl)phenyl)-2,5-dimethylbenzenesulfonamide] and `Cc1ccc(C)c(S(=O)(=O)Nc2cccc(C(=O)N3CCCCCC3)c2)c1` [Example 32, N-(3-(azepane-1-carbonyl)phenyl)-2,5-dimethylbenzenesulfonamide] cannot be ordered by AC50: > 100 µM for the first, > 100 µM for the second.

`Cc1ccc(C)c(S(=O)(=O)Nc2cccc(C(=O)N(C)CC3CC3)c2)c1` [Example 33, N-(cyclopropylmethyl)-3-((2,5-dimethylphenyl)sulfonamido)-N-methylbenzamide] and `Cc1ccc(C)c(S(=O)(=O)Nc2ccc(C(=O)NCC3CC3)cc2)c1` [Example 40, N-(cyclopropylmethyl)-4-((2,5-dimethylphenyl)sulfonamido)benzamide] cannot be ordered by AC50: > 100 µM for the first, > 100 µM for the second.

`COc1ccc(S(=O)(=O)Nc2cccc(C(=O)N3CCSCC3C#N)c2)cc1` (centres unmarked) [Example 34, N-(3-(3-cyanothiomorpholine-4-carbonyl)phenyl)-4-methoxybenzenesulfonamide] and `N#CC1CSCCN1C(=O)c1cccc(NS(=O)(=O)c2cccc(C(F)(F)F)c2)c1` (centres unmarked) [Example 35, N-(3-(3-cyanothiomorpholine-4-carbonyl)phenyl)-3-(trifluoromethyl)benzenesulfonamide] cannot be ordered by AC50: > 100 µM for the first, > 100 µM for the second.

`Cc1cc(S(=O)(=O)Nc2cccc3c2CC(=O)N3)c(C)cc1Cl` [Example 36, 4-chloro-2,5-dimethyl-N-(2-oxoindolin-4-yl)benzenesulfonamide] and `Cc1cc(S(=O)(=O)Nc2cccc(C(N)=O)c2)c(C)cc1Cl` [Example 44, 3-((4-chloro-2,5-dimethylphenyl)sulfonamido)benzamide] cannot be ordered by AC50: > 100 µM for the first, > 100 µM for the second.

`Cc1ccc(C)c(S(=O)(=O)Nc2cncc(C(=O)N3CCOCC3)c2)c1` [Example 38, 2,5-dimethyl-N-(5-(morpholine-4-carbonyl)pyridin-3-yl)benzenesulfonamide] and `Cc1cc(NS(=O)(=O)c2cc(C)ccc2C)cc(C(=O)N2CCCC[C@H]2C)c1` [Example 42, (R)-2,5-dimethyl-N-(3-methyl-5-(2-methylpiperidine-1-carbonyl)phenyl)benzenesulfonamide] cannot be ordered by AC50: > 100 µM for the first, > 100 µM for the second.

`Cc1ccc(C)c(S(=O)(=O)Nc2ccc(C(=O)N[C@@H](C)C3CC3)cc2)c1` [Example 39, (S)-N-(1-cyclopropylethyl)-4-((2,5-dimethylphenyl)sulfonamido)benzamide] and `Cc1ccc(C)c(S(=O)(=O)Nc2ccc(C(=O)N3CCCC[C@H]3C)s2)c1` [Example 43, (R)-2,5-dimethyl-N-(5-(2-methylpiperidine-1-carbonyl)thiopheN-2-yl)benzenesulfonamide] cannot be ordered by AC50: > 100 µM for the first, > 100 µM for the second.

`Cc1ccc(C)c(S(=O)(=O)Nc2cccc(C(=O)N3CCSCC3C(N)=O)c2)c1` (centres unmarked) [Example 41, 4-(3-((2,5-dimethylphenyl)sulfonamido)benzoyl) thiomorpholine-3-carboxamide] and `Cc1cc(S(=O)(=O)Nc2cccc(C(=O)N3CCNCC3)c2)c(C)cc1Cl` [Example 46, 4-chloro-2,5-dimethyl-N-(3-(piperazine-1-carbonyl)phenyl)benzenesulfonamide] cannot be ordered by AC50: > 100 µM for the first, > 100 µM for the second.

`COCCNC(=O)c1cccc(NS(=O)(=O)c2cc(C)c(Cl)cc2C)c1` [Example 47, 3-((4-chloro-2,5-dimethylphenyl)sulfonamido)-N-(2-methoxyethyl)benzamide] and `Cc1cc(S(=O)(=O)Nc2cccc(C(=O)N[C@H](C)c3ccccc3)c2)c(C)cc1Cl` [Example 48, (R)-3-((4-chloro-2,5-dimethylphenyl)sulfonamido)-N-(1-phenylethyl)benzamide] cannot be ordered by AC50: > 100 µM for the first, > 100 µM for the second.

`Cc1cc(S(=O)(=O)Nc2ccc(F)c(C(=O)N3CCC[C@H]3C)c2)c(C)cc1Cl` [Example 49, (R)-4-chloro-N-(4-fluoro-3-(2-methylpyrrolidine-1-carbonyl)phenyl)-2,5-dimethylbenzenesulfonamide] and `Cc1cc(S(=O)(=O)Nc2cc(C(=O)N3CCC[C@H]3C)ccc2F)c(C)cc1Cl` [Example 50, (R)-4-chloro-N-(2-fluoro-5-(2-methylpyrrolidine-1-carbonyl)phenyl)-2,5-dimethylbenzenesulfonamide] cannot be ordered by AC50: > 100 µM for the first, > 100 µM for the second.
